Consider 14 molecules from patent US4784958A, “1,4-dihydropyridine derivatives and 1,4-dihydroquinoline derivatives radioactively labelled with ^125 I, their preparation, and their use in testing medicaments” (priority 1983, dated 1988).

Where two headings read alike, the source gives them in different places. Bounds are passed on as bounds.

Broadly, the IC50 is the concentration that inhibits the measured activity by half. The term EC50 denotes the concentration that produces a half-maximal response.

In data set [1] the target is T1, guinea-pig skeletal muscle membranes (1,4-dihydropyridine receptors / calcium channel) (Cavia porcellus, UniProt A0A286X7I0).
T1 construct: membrane fractions from guinea-pig brain, cardiac muscle and skeletal muscle; from tissue; host or cells: guinea-pig skeletal muscle membranes
The experiment in a line: Competition radioreceptor assay with the ^125 I-labelled 1,4-dihydropyridine of Example 2. Format: binding. How it is done:
In order to separate the free ligand from the bound ligand, 10% (w/v) polyethylene glycol 6000 was added to ice-cold 10 mM TRIS HCl buffer, pH 7.4, followed by 20 mM MgCl2 (3.5 ml), the sample was diluted, suction filtered in vacuo over a glass fibre filter, and the glass fibre filter was rewashed twice with 3.5 ml of the same buffer. The particle-bound radioactivity retained on the filters was then measured.
The data in Table 1 are mean values (±asymptotic standard deviation) from 3 independent experiments in which various calcium antagonists and derivatives or precursors of calcium antagonists were used as competitors with the ^125 I-labelled 1,4-dihydropyridine ("ligand") obtained in Example 2. Guinea-pig skeletal muscle membranes were used as receptor material. The concentration of the labelled ligand was 20-30 pmole/l and the experimental temperature was 25° C. 6 to 9 different concentrations of the checked substances were used (in each case as duplicate) and the measured binding data were optimally adapted by means of a computer program (DeLean A., Munson P. J., Rodbard D. (1978). Simultaneous analysis of families of sigmoid curves: application to bioassay, radioligand assay and physiological dose-response curves. Am J. Physiol. 4 E97-102). The stereospecifity of the binding for chiral 1,4-dihydropyridines was investigated as an important criterion for the receptor binding of the ^125 I-labelled 1,4-dihydropyridine in group 1. […] The EC50 value is the concentration of the substance stimulating a semi-maximum specific binding of the ligand.

The target of data set [2] is T2, 1,4-dihydropyridine receptors in guinea-pig brain membranes (Cavia porcellus, UniProt O35505).
T2 construct: 1,4-dihydropyridine receptors in guinea-pig brain membranes; from tissue; host or cells: guinea-pig brain membranes
Description: Saturation analysis, binding of ^125 I-labelled 1,4-dihydropyridine to brain membranes. The following applies: 25° C., read-out: dissociation constant (conclusion). As to the method: (§1) Aliquots of the obtained and ^125 I-labelled 1,4-dihydropyridine are dried in a stream of nitrogen, incubated with buffer (50 mM TRIS-HCl, pH 7.4, to which the protease inhibitor phenylmethylsulphonyl fluoride has been added (0.1 mmole/l)) and membrane fractions from guinea-pig brain, cardiac muscle and skeletal muscle (prepared as described in Drug Development 9: 63-98 (1983); Naunyn-Schmiedeberg's Arch. Pharmacol. 321: 80-83 (1983) and FEBS Lett 148: 331-337 (1982)) at 25° C. in 0.1 ml volume until equilibrium is reached, and the specific binding (defined as the difference in the binding of the ^125 I-labelled 1,4-dihydropyridine in the absence and presence of 1 μmole/l of Nimodipin) is measured by means of the filtration technique (to separate bound and free ^125 I-labelled 1,4-dihydropyridine). […] The particle-bound radioactivity retained on the filters was then measured.
(§2) The following formula was used to calculate the concentration of the free ligand: (T. a)-B, where T is the total concentration of the ligand, a is a factor describing the binding capacity of the ligand, and B is the concentration of the specifically bound ligand in equilibrium. The factor a was determined experimentally by saturating the radioactive ligand with binding sites (receptors) (described in FEBS Lett. 148, 331-337, 1982; Naunyn Schmiedeberg's Arch. Pharmacol 321, 7-10, 1982). […]

Data set [3] in a line: Stability of the ^125 I-labelled 1,4-dihydropyridine (HPLC, thin layer chromatography). The data set is classed as physicochemical. As to the method: The following formula was used to calculate the concentration of the free ligand: (T. a)-B, where T is the total concentration of the ligand, a is a factor describing the binding capacity of the ligand, and B is the concentration of the specifically bound ligand in equilibrium. The factor a was determined experimentally by saturating the radioactive ligand with binding sites (receptors) (described in FEBS Lett. 148, 331-337, 1982; Naunyn Schmiedeberg's Arch. Pharmacol 321, 7-10, 1982). The factor "a" was 0.5 for the asymmetric 1,4-dihydropyridine derivative, in agreement with the theoretically required capacity of the receptor (R) and (S) to differentiate enantiomers of the ^125 I-labelled 1,4-dihydropyridine (stereospecifity of the binding). The ^125 I-labelled 1,4-dihydropyridine is the racemic mixture of (R) and (S) enantiomers. A dissociation constant of 350 pmole/l (25° C.) was found for muscle membranes (not illustrated). The stability of the ^125 I-labelled 1,4-dihydropyridine was checked under the following conditions by conventional methods (HPLC, thin layeer chromatography): buffer 50 mM TRIS HCl, pH 7.4, 25° C., 4 hours; muscle membrane in buffer, 25° C., 4 hours; as well as storage in benzene or absolute ethanol at -20° C. for up to 21 days after preparation of the ligand. In no case were the radiochemical impurities greater than 10%.

Data set [4] has as its target T3, skeletal muscle membranes (1,4-dihydropyridine receptors) (Cavia porcellus, UniProt A0A286X7I0).
T3 construct: membrane fractions from guinea-pig brain, cardiac muscle and skeletal muscle; from tissue; host or cells: guinea-pig skeletal muscle membranes
Description: Saturation analysis, binding of ^125 I-labelled 1,4-dihydropyridine to skeletal muscle membranes. The following applies: 25° C. Details: species or system guinea-pig. As to the method:
as §1, §2

Setting [5] is: read-out: IC50 (50% inhibition of the specific binding of the ligand in the radioreceptor assay), guinea-pig skeletal muscle membranes, ligand 20-30 pmole/l, 25° C., mean ± asymptotic standard deviation, 3 independent experiments.
Where [6] appears, read: guinea-pig skeletal muscle membranes, ligand 20-30 pmole/l, 25° C., mean ± asymptotic standard deviation, 3 independent experiments.

T1 sequence (A0A286X7I0 1-1867): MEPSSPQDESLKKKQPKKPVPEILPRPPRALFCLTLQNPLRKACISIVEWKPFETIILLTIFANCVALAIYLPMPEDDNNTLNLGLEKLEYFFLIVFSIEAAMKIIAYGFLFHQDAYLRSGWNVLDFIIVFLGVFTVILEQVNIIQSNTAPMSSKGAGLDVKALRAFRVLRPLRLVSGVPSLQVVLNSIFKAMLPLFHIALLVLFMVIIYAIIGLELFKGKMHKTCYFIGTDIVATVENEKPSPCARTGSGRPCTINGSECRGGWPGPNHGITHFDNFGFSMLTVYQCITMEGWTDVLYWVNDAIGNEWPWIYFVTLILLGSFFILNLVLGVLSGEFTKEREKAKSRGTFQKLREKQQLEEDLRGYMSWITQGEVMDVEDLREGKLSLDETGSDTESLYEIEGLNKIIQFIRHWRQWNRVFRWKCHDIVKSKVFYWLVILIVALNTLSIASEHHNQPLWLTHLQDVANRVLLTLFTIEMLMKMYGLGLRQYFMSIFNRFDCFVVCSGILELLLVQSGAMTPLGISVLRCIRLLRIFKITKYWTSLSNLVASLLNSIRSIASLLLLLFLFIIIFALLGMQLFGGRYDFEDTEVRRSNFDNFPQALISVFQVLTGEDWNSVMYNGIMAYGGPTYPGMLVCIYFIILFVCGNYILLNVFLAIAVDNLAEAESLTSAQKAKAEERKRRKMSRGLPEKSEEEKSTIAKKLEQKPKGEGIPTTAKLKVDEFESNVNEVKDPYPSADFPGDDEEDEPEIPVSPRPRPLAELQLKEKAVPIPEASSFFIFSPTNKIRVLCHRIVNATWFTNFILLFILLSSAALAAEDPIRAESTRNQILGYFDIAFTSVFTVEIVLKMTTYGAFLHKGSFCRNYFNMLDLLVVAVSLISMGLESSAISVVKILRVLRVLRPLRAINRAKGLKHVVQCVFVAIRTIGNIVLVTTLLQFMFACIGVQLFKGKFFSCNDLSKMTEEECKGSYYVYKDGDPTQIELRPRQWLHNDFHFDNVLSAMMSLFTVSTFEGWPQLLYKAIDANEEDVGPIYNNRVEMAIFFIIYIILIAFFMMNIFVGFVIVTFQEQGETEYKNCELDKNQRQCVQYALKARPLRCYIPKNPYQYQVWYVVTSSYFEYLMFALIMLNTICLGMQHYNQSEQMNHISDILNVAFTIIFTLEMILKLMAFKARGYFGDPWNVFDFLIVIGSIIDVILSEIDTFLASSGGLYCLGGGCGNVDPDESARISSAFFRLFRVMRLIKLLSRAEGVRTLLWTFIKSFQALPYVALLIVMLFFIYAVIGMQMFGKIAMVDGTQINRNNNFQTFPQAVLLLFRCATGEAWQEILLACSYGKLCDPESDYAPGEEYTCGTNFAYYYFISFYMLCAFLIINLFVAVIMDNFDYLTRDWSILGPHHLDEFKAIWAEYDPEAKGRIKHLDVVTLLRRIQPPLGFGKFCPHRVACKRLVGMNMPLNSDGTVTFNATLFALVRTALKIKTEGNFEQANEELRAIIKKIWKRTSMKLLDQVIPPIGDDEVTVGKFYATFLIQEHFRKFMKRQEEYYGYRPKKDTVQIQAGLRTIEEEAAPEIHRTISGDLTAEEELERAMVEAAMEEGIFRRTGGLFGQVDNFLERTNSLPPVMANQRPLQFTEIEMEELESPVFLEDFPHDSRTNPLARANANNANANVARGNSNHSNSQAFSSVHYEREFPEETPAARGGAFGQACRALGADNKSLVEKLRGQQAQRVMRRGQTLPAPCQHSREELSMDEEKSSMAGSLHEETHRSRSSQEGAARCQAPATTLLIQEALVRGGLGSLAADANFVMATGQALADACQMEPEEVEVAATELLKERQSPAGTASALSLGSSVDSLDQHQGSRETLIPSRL
T3 sequence (A0A286X7I0 1-1867): as above
T2 sequence (O35505 whole entry): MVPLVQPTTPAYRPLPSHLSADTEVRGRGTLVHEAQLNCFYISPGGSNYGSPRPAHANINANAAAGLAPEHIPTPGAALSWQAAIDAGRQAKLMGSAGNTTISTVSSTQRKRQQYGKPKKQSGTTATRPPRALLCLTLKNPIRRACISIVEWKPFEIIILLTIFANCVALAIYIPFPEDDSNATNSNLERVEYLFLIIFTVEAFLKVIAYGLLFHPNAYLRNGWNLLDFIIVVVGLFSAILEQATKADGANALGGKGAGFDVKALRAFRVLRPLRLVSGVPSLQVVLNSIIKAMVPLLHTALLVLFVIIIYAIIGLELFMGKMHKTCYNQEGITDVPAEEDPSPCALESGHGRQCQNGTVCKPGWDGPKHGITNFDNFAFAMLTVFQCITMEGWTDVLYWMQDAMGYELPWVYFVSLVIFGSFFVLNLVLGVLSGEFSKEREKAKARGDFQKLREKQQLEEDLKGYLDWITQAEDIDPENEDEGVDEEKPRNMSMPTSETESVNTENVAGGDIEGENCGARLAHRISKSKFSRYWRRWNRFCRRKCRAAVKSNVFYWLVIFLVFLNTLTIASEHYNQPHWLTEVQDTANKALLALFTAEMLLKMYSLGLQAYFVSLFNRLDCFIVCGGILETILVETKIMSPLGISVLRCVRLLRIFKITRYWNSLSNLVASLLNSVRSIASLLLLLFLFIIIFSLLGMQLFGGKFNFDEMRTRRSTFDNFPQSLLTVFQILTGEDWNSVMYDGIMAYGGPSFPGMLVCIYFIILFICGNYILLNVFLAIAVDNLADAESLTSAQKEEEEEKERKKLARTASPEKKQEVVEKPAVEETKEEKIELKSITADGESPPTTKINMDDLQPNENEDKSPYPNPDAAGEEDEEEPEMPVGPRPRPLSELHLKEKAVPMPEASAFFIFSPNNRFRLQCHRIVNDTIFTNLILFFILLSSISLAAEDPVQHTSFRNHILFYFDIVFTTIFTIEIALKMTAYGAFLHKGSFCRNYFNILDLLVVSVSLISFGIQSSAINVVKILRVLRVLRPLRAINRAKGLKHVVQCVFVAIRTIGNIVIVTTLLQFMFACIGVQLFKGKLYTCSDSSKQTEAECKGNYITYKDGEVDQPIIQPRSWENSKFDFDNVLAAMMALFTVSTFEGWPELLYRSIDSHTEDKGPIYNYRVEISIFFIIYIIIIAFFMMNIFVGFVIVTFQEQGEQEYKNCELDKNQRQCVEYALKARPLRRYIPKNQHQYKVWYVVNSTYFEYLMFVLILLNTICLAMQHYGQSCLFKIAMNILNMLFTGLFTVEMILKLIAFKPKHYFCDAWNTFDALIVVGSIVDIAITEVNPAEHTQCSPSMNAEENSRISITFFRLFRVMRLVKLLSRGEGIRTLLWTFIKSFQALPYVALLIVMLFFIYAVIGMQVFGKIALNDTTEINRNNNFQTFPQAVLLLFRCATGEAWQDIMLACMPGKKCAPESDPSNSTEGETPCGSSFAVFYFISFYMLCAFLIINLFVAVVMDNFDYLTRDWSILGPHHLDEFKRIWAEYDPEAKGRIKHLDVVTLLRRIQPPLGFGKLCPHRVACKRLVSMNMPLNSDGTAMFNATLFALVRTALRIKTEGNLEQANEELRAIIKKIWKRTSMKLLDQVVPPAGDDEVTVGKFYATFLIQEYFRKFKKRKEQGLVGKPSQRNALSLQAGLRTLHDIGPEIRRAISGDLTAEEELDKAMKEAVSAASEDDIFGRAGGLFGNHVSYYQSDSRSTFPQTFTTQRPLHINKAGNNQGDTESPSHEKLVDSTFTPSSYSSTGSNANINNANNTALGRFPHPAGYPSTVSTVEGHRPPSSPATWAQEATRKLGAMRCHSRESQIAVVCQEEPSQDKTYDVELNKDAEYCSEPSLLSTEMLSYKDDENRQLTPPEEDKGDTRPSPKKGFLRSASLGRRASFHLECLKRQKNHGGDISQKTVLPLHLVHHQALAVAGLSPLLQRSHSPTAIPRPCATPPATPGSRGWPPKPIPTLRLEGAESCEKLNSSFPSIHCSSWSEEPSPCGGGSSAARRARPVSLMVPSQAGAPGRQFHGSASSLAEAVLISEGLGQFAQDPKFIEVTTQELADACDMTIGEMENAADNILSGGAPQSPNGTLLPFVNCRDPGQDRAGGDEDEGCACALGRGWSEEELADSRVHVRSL

On to “1,4-dihydro-2,6-dimethyl-4-(2-trifluoromethylphenyl)-3,5-pyridinecarboxylic acid 2-(aminoethyl)ethyl ester [Bay K 8644]”, for which, in data set [1] (setting [5]), the IC50 turned out to be 37 ± 5 nM.
`COC(=O)C1=C(C)NC(C)=C(C(=O)OC(C)C)C1c1cccc2nonc12` (single isomer, unassigned; (-)) [(-)205-034, isopropyl 4-(2,1,3-benzoxadiazole-4-yl)-1,4-dihydro-2,6-dimethyl-5-methoxycarbonylpyridine-3-carboxylate]: in data set [1] (setting [6]), the IC50 was 198 ± 40 nM.
With `CCOC(=O)C1=C(C)NC(C)=C(C(=O)O)C1c1cccc([N+](=O)[O-])c1` (stereo not drawn) [Bay M 5579], the IC50 in data set [1] (setting [5]) came out at 1860 ± 300 nM.
In the case of `COc1ccc(CCN(C)CCCC(C#N)(c2cc(OC)c(OC)c(OC)c2)C(C)C)cc1OC` (single isomer, unassigned; (+)) [(+)Methoxyverapamil, Methoxyverapamil], the IC50 in data set [1] (setting [6]) was determined as 190 ± 50 nM.
With `COc1ccc([C@H]2Sc3ccccc3N(CCN(C)C)C(=O)[C@H]2OC(C)=O)cc1` [l-cis-Diltiazem], the IC50 in data set [1] stood at 3000 ± 1600 nM.
Regarding `COC(=O)C1=C(C)NC(C)=C(C(=O)OCCN(C)Cc2ccccc2)C1c1cccc([N+](=O)[O-])c1` (single isomer, unassigned; (+)) [(+)Nicardipine, 2,6-dimethyl-4-(3 nitrophenyl)-1,4-dihydropyridine-3,5-dicarboxylic acid 3-2(N-benzyl-N-methylamino)-ethylester-5-methylester], in data set [1] (setting [6]), the IC50 was determined as 7 ± 0.8 nM.
For `COC(=O)C1=C(C)NC(C)=C(C(=O)OCCN(C)Cc2ccccc2)C1c1cccc([N+](=O)[O-])c1` (single isomer, unassigned; (-)) [(-)Nicardipine, 2,6-dimethyl-4-(3 nitrophenyl)-1,4-dihydropyridine-3,5-dicarboxylic acid 3-2(N-benzyl-N-methylamino)-ethylester 5-methylester], the concentration for half-maximal inhibition (IC50) in data set [1] (setting [6]) was 42 ± 3 nM.
Regarding `COc1ccc([C@@H]2Sc3ccccc3N(CCN(C)C)C(=O)[C@@H]2OC(C)=O)cc1` [d-cis-Diltiazem], the EC50 in data set [1] is 960 ± 310 nM.
For `COc1ccc(CCN(C)CCC[C@@](C#N)(c2cc(OC)c(OC)c(OC)c2)C(C)C)cc1OC` [(-)Methoxyverapamil, Methoxyverapamil], in data set [1] (setting [6]), the IC50 was found to be 21 ± 8 nM.
On to `CCOC(=O)C1=C(C)NC(C)=C(C(=O)OCCNC(=O)CCc2ccc(O)c([125I])c2)C1c1ccccc1C(F)(F)F` (stereo not drawn) [^125 I-labelled 1,4-dihydropyridine], for which the Kd in data set [2] is less than 1 nM; in data set [4] (muscle membranes, read-out: dissociation constant (KD)), 0.35 nM; in data set [4] (skeletal muscle membranes, read-out: dissociation constant (conclusion)), less than 1 nM. In addition, in data set [3], the “stability (conclusion)” value is “sufficient stability”. Moreover, in data set [3] (50 mM TRIS HCl pH 7.4, 25° C., 4 hours, muscle membrane in buffer, 25° C., storage in benzene or absolute ethanol at -20° C. up to 21 days), the “radiochemical impurities (stability)” value was no more than 10%.
Turning to `COC(=O)C1=C(C)NC(C)=C(C(=O)OC(C)C)C1c1cccc2nonc12` (single isomer, unassigned; (+)) [(+)205-033, isopropyl 4-(2,1,3-benzoxadiazole-4-yl)-1,4-dihydro-2,6-dimethyl-5-methoxycarbonylpyridine-3-carboxylate], the IC50 in data set [1] (setting [6]) was found to be 2 ± 0.05 nM.
Turning to `CCOC(=O)C1=C(C)NC2=C(C(=O)OC2)C1c1ccccc1OC(F)F` (stereo not drawn) [CGP 28392], the IC50 in data set [1] (setting [6]) came out at 1250 ± 180 nM.
On to `COC(=O)C1=C(C)NC(C)=C(C(=O)OC(C)C)C1c1cccc([N+](=O)[O-])c1` (single isomer, unassigned; (-)) [(-)Bay e 6927, isopropylmethyl 1,4-dihydro-2,6-dimethyl-4-(3-nitrophenyl)-3,5-pyridinedicarboxylate], for which the IC50 in data set [1] (setting [6]) came out at 3 ± 0.04 nM.
Regarding `COC(=O)C1=C(C)NC(C)=C(C(=O)OC(C)C)C1c1cccc([N+](=O)[O-])c1` (single isomer, unassigned; (+)) [(+)Bay e 6927, isopropylmethyl 1,4-dihydro-2,6-dimethyl-4-(3-nitrophenyl)-3,5-pyridinedicarboxylate], the IC50 in data set [1] (setting [6]) was 420 ± 67 nM.
